Values after ≈ are worked out from the molar mass of the structure shown.
Assays:
K. pneumoniae WACC 790 = experiment: Resazurin reduction for the evaluation of metabolic activity (Example 2, FIG. 8); type: cell-based, Klebsiella pneumoniae
Method: (§1) Bacterial strains were maintained as suspensions in 20% (v/v) glycerol/Brain-Heart Infusion at −80° C.
Aerobic respiration was measured in the presence or absence of D-Lactic acid and the presence or absence of companion antibiotics either following incubation and visual recording of the MIC, or in a separate study. For evaluation after completion of MIC determination, the entire volume of the MIC well (100 μl) was mixed by pipetting up and down, then transferred to the equivalent well of a fluorescence-absorbance suitable 96-well plate. Alternatively, cultures were pipetted together as above and incubated overnight at 37° C. in the absence of any antimicrobial compounds. […] After incubation regimes were completed for both procedures, resazurin reduction was evaluated by adding 10 μl of a 0.02% resazurin solution to every well, and incubating the plates with gentle shaking (40 rpm) for a further 90 minutes at 37° C. […]
Following incubation, the 96-well trays were read on a fluorescence-absorbance spectrophotometer, using an excitation frequency of 565 nm and emission frequency of 590 nm. […]

[1] = system: Pseudomonas aeruginosa clinical isolates from patients with cystic fibrosis; experiment: Resazurin staining of planktonic cultures, metabolic activity (Example 1); type: cell-based; conditions: resorufin fluorescence; 24 clinical isolates; 24 h D-Lactic acid treatment
Method: Clinical isolates of Pseudomonas aeruginosa collected from patients with cystic fibrosis were phenotyped and stored as 50% glycerol stocks at −70° C.±2° C. Clinical isolates were thawed and streaked out on blood agar plates to grow at 37° C., 5% CO2 for 12-24 hours, or until isolated colonies were large enough to sustain further culturing could be selected. Isolated colonies were looped into 5 mL of LB broth and incubated overnight at 37° C., 5% CO2 with gentle shaking to achieve stationary phase (B0).
B0 cultures were diluted 1:1000 in Pseudomonas minimal medium (herein referred to as PMM) to achieve approximately […], then 150 μL of each diluted culture was transferred to wells of a 96 well mitrotitre tray and incubated overnight at 37° C., 5% CO2. D-Lactic acid was then applied by adding 50 μL of appropriately stock solutions diluted in PMM (or vehicle-only in the case of control wells) and incubating for a further 24 hours at 37° C., 5% CO2. 20 μL culture supernatant was then transferred to wells containing 180 μL fresh PMM, culture density determined by measuring the absorbance at 595 nm (using a ThermoFisher Multiskan FC plate reader). […]
Viable cells reduce the blue resazurin dye to the pink, fluorescent resorufin form. Following incubation fluorescence was quantified by excitation wavelength of 540 nm and an emission wavelength of 590 nm using Enspire microplate reader. […]

[2] = system: P. aeruginosa strain WACC91; experiment: Resazurin reduction of planktonic cultures in M63 (glucose), D- versus L-Lactic acid (Example 3); type: cell-based, Pseudomonas aeruginosa; conditions: resorufin fluorescence; compared to vehicle only treatment; M63 (glucose); 24 h
Method: . Viable cells reduce the blue resazurin dye to the pink, fluorescent resorufin form. Following incubation fluorescence was quantified by excitation wavelength of 540 nm and an emission wavelength of 590 nm using Enspire microplate reader.
P. aeruginosa strain WACC91 was maintained as a suspension in 20% (v/v) glycerol/Brain-Heart Infusion at −80° C. For use, a loop-full of ice was scraped from the stock and streaked for single colonies on LB media containing 1.8% agar and incubated overnight at 37° C. Isolated colonies were looped into 5 mL of LB broth and incubated at 37° C. with shaking until turbidity was greater than that of a 1.0 McFarland Standard (3-4 h).
The broth culture was diluted in M63 minimal media containing 0.2% (w/v) glucose as the sole carbon source to a turbidity equal to a 1.0 McFarland standard using a spectrophotometer at a wavelength of 595 nm. This culture was then diluted 1:100 in M63 (glucose) and 100 μL together with an additional 50 μL was transferred to each well of a 96 well microtitre tray and incubated overnight at 37° C., 5% CO2. D-Lactic acid, L-Lactic acid, or vehicle only (sterile H2O) was then applied by adding 50 μL of appropriate stock solutions diluted in M63 (glucose) and incubating for a further 24 hours at 37° C., 5% CO2. Culture metabolic activity was then determined using resazurin reduction as described above in Example 1.

[3] = system: bioluminescent col^R E. coli Xen14; experiment: Murine peritoneal-sepsis model, CD1 male mice challenged IP (Example 6); type: in vivo, Escherichia coli; conditions: for survival of infected mice: up to 72 h post-infection, 8 mice per group, Sodium D-Lactate 1000 mg/kg single oral dose, colistin 1 mg/kg IP at 0, 4, 8 and 12 h
Method: Bioluminescent col^R E. coli Xen14 was streaked onto a 5% sheep blood agar plate containing 30 μg/ml kanamycin and incubated overnight (o/n) at 37° C. in normal air. The plate was first checked on a Lumina XRMS Ill machine to ensure bioluminescence, then a loopful of the o/n growth was suspended into 10 mL Luria Bertani (LB) broth to A600 nm=0.05. The suspension was incubated at 37° C. for approx. 3 h until A600 nm=0.5 (equivalent to approx. 5×10^8 CFU/mL). The bacterial suspension was centrifuged at 4,000×g for 5 min, resuspended and washed twice in phosphate buffered saline (PBS, pH 7.2) resuspended again in PBS and then placed on wet ice and used for mouse infection within 10 min of preparation as described below.
Outbred Swiss male (CD1) mice, 6-7 weeks (approx. 26-33 g, 8 mice per group) obtained from the Laboratory Animal Services breeding facility of The University of Adelaide, were used in these experiments. Mice had access to food and water ad libitum. The Animal Ethics Committee of The University of Adelaide (approval number S-2022-044) reviewed and approved all animal experiments. The study was conducted in compliance with the Australian Code of Practice for the Care and Use of Animals for Scientific Purposes (8th Edition 2013) and the South Australian Animal Welfare Act 1985.
Each mouse was challenged intraperitoneally (IP) with approx. 1×10^8 CFU of the bioluminescent col^R E. coli Xen14 in 200 μL PBS containing 3% porcine stomach mucin type Ill (Sigma Aldrich) and subjected to bioluminescence imaging in both ventral and dorsal positions on the IVIS Lumina XRMS Series Ill system while under anaesthesia. […]
Aliquots of blood samples (approx. 50 μL) were taken by submandibular (facial vein) bleeding from individual mice in all groups at 4 h for bacterial enumeration. […] In all experiments, signals were collected from a defined region of interest and total flux intensities (photons/s) analysed using Living Image Software 4.7.3. Survival rates for the groups were recorded. […]

S. aureus 29213 = experiment: Minimum inhibitory concentration of metal salts by broth microdilution in Trypticase Soya broth (Example 4); type: cell-based, Staphylococcus aureus
Method: (§2) Bacterial strains were maintained as suspensions in 20% (v/v) glycerol/Brain-Heart Infusion at −80° C. For use, a loop-full of ice was scraped from the stock and streaked for single colonies on Trypticase Soya agar containing 1.8% agar and incubated overnight at 37° C.
(§3) A standard inoculum was prepared from broth culture. One to three colonies from an overnight agar culture plate were transferred to 5 ml of broth media and incubated at 37° C. with shaking (200 rpm) until turbidity was greater than that of a 0.5 McFarland Standard (overnight). All assays were performed in Trypticase Soya broth.
(§4) The broth culture was diluted in broth to a turbidity equal to a 0.5 McFarland Standard using a spectrophotometer at a wavelength of 620 nm. The 0.5 McFarland Standard was further diluted 1:100 in broth to create the standard inoculum. 50 μl of this standard inoculum was dispensed into every well in the microtitre tray, except the negative controls, where 50 μl of broth was dispensed instead.
(§5) Next, a working concentration at two times the highest target concentration for every salt (in aqueous solution) was created in broth from stock solutions. 100 μl of this working concentration was pipetted into the first well, and 50 μl of broth media into all other wells. 50 μl of the first well was pipetted out and serially diluted across all wells in the row until the final concentration in the range achieved. 50 μl from the final well was removed and discarded. This produced a concentration range where each well was double the target concentration. All agents were performed in duplicate.
(§6) 96 well trays were incubated at 37° C. for 18±2 hours.

S. aureus MRSA 510 = experiment: as above; type: cell-based, Staphylococcus aureus
Method: as §2, §3, §4, §5, §6

S. aureus MSSA 278 = experiment: Minimum inhibitory concentration by broth microdilution (Example 2); type: cell-based, Staphylococcus aureus; conditions: unit assumed
Method: as §1
(§7) A standard inoculum was prepared from broth culture.
as §4
as §5, with “antimicrobial” for “salt (in aqueous solution)”
as §6

S. aureus 510 (MRSA) = experiment: as above; type: cell-based, Staphylococcus aureus; conditions: unit assumed
Method: as §1, §7, §4
as §5, with “antimicrobial” for “salt (in aqueous solution)”
as §6

P. aeruginosa 001-11R = experiment: as above; type: cell-based, Pseudomonas aeruginosa
Method: as §2, with “rich media” for “Trypticase Soya agar”, “agar (for Pseudomonas aeruginosa or Klebsiella pneumoniae, Luria-Bertani medium; for Staphylococcus aureus or Streptococcus pneumoniae, Trypticase Soy agar)” for “agar”
A standard inoculum was prepared from broth culture. 1 to 3 colonies from an overnight agar culture plate were transferred to 5 ml of broth media and incubated at 37° C. with shaking (200 rpm) until turbidity was greater than that of a 0.5 McFarland Standard (overnight). The following broth media were used: Cation-adjusted Mueller-Hinton broth (caMHB—all strains); Roswell Park Memorial Institute medium (RPMI 1640, phenol red-free—S. aureus); Trypticase Soya Broth (TSB—S. aureus, S. pneumoniae); Todd Hewitt Broth (THB—S. pneumoniae), M63 minimal medium, supplemented with 0.2% glucose (M63—K. pneumoniae).
as §4
as §5, with “antimicrobial” for “salt (in aqueous solution)”
as §6

[4] = antibiotic + 1 mM D-Lactic acid
[5] = antibiotic + 10 mM D-Lactic acid

O=C(O)c1cn(C2CC2)c2cc(N3CCNCC3)c(F)cc2c1=O [Ciprofloxacin]
Relative metabolic activity, antibiotic plus D-Lactic acid versus antibiotic only (K. pneumoniae WACC 790; plus 0.1 mM D-Lactic acid): enhances metabolic activity suppression

C[C@@H](O)C(=O)O [D-Lactic acid, (2R)-2-hydroxypropanoic acid]
inhibition of metabolic activity [1]: 90% | inhibition of metabolic activity [2]: > 50%

C[C@@H](O)C(=O)[O-].[Na+] [Sodium D-Lactate]
treatment effectiveness (protection) ([3]; single oral dose of 1000 mg/kg): not protective | survival of infected mice [3]: succumbed to infection by 12 h post-challenge

[Zn+2] [Zn^2+]
MIC D-Lactate salt (S. aureus 29213; metal ion as D-Lactate salt): 4 mM | MIC (NO3)2 salt (S. aureus 29213; metal ion as nitrate salt): 8 mM | MIC D-Lactate salt (S. aureus MRSA 510; metal ion as D-Lactate salt): 4 mM | MIC (NO3)2 salt (S. aureus MRSA 510; metal ion as nitrate salt): 8 mM

CO[C@H]1/C=C/O[C@@]2(C)Oc3c(C)c(O)c4c(O)c(c(/C=N/N5CCN(C)CC5)c(O)c4c3C2=O)NC(=O)/C(C)=C\C=C\[C@H](C)[C@H](O)[C@@H](C)[C@@H](O)[C@@H](C)[C@H](OC(C)=O)[C@@H]1C [rifampicin]
MIC + 1 mM D-Lactic acid (S. aureus MSSA 278; [4]): 8 ng/mL | MIC + 10 mM D-Lactic acid (S. aureus MSSA 278; [5]): 8 ng/mL | MIC (S. aureus MSSA 278; antibiotic alone): 15 ng/mL (≈ 0.0182 µM) | MIC + 1 mM D-Lactic acid (S. aureus 510 (MRSA); [4]): 8 ng/mL | MIC + 10 mM D-Lactic acid (S. aureus 510 (MRSA); [5]): 8 ng/mL | MIC (S. aureus 510 (MRSA); antibiotic alone): 60 ng/mL (≈ 0.0729 µM)

colistin
MIC + 1 mM D-Lactic acid (P. aeruginosa 001-11R; [4]): 1.0 | MIC + 10 mM D-Lactic acid (P. aeruginosa 001-11R; [5]): 1.0 | MIC (P. aeruginosa 001-11R; antibiotic alone): 2.0 | survival of infected mice [3]: three out eight | Relative metabolic activity, antibiotic plus D-Lactic acid versus antibiotic only (K. pneumoniae WACC 790; plus 10 mM D-Lactic acid): enhances metabolic activity suppression

Source: patent US20260271925A1, “DYSREGULATION OF PLANKTONIC BACTERIAL METABOLISM” (Lixa Limited, priority 2023, published 2026)
